Measurements reported in ChEMBL document CHEMBL5550120, “SuFEx-based chemical diversification for the systematic discovery of CRBN molecular glues” (Bioorg Med Chem, 2024).
Active and inactive are the calls of the source. The rule behind the calls is not given here.

Tests used:
BE(2)-C [1] = test: Antiproliferative activity against CRBN depleted human BE2C cells assessed as reduction in cell viability measured after 3 days by ATP-dependent luminescence assay; type: functional, cell-based; conditions: time 3.0 day
[2] = target: T1, Protein cereblon/Eukaryotic peptide chain release factor GTP-binding subunit ERF3A (Homo sapiens, UniProt Q96SW2+P15170); test: Molecular glue activity at CRBN/HiBiT-tagged GSPT1 in wild type human MV4-11 cells assessed as induction of GSPT1 degradation measured after 3 hrs by immunoblot analysis; type: cell-based
Target sequence in this assay (Q96SW2 whole entry): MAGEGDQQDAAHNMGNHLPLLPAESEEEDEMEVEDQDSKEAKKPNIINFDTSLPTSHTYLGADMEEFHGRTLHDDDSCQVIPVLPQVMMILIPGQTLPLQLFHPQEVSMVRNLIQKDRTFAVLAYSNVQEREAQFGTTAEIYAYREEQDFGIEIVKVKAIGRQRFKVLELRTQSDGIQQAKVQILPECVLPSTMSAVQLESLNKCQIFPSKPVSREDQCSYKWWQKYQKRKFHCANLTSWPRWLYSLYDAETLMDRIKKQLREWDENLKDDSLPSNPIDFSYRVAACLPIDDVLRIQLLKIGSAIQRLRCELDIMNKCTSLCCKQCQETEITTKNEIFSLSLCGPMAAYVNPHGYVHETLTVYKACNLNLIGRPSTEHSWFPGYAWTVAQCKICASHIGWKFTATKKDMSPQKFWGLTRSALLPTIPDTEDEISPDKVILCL
Target sequence in this assay (P15170 whole entry): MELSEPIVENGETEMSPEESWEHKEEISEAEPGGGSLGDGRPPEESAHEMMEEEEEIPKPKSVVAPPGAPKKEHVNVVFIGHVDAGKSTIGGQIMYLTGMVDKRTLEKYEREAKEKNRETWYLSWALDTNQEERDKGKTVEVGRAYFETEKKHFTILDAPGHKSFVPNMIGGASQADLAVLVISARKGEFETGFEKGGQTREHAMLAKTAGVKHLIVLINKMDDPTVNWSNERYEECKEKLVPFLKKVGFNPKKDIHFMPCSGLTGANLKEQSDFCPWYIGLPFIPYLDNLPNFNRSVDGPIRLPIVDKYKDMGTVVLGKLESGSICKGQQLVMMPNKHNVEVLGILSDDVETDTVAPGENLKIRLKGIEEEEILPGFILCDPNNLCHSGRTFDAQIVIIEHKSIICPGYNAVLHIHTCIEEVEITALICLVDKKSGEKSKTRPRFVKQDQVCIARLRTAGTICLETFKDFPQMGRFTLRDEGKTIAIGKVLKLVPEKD

MV4-11 [3] = test: Antiproliferative activity against human MV4-11 cells harboring GSPT1 G575N mutant assessed as reduction in cell viability measured after 3 days by ATP-dependent luminescence assay; type: functional, cell-based; conditions: time 3.0 day
MOLT-4 [4] = test: Antiproliferative activity against CRBN depleted human MOLT-4 cells assessed as reduction in cell viability measured after 3 days by ATP-dependent luminescence assay; type: functional, cell-based; conditions: time 3.0 day
[5] = target: T1, Protein cereblon/Eukaryotic peptide chain release factor GTP-binding subunit ERF3A; test: Molecular glue activity at CRBN/GSPT1 in CRBN depleted human BE2C cells assessed as induction of GSPT1 degradation at 3 uM measured after 3 hrs by immunoblot analysis; type: cell-based
Target sequence in this assay (P15170 whole entry, looked up): as the sequence (P15170 whole entry) above
Target sequence in this assay (Q96SW2 whole entry, looked up): as the sequence (Q96SW2 whole entry) above

MV4-11 [6] = test: Antiproliferative activity against wild type human MV4-11 cells assessed as reduction in cell viability measured after 3 days by ATP-dependent luminescence assay; type: functional, cell-based; conditions: MV4-11, 72 h
[7] = target: T1, Protein cereblon/Eukaryotic peptide chain release factor GTP-binding subunit ERF3A; test: Molecular glue activity at CRBN/HiBiT-tagged GSPT1 in wild type human BE2C cells assessed as induction of GSPT1 degradation measured after 3 hrs by immunoblot analysis; type: cell-based
Target sequence in this assay (Q96SW2 whole entry): as above
Target sequence in this assay (P15170 whole entry): as the sequence (P15170 whole entry) above

[8] = target: T1, Protein cereblon/Eukaryotic peptide chain release factor GTP-binding subunit ERF3A; test: Molecular glue activity at CRBN/GSPT1 in CRBN depleted human MOLT-4 cells assessed as induction of GSPT1 degradation at 3 uM measured after 3 hrs by immunoblot analysis; type: cell-based
Target sequence in this assay (P15170 whole entry, looked up): as the sequence (P15170 whole entry) above
Target sequence in this assay (Q96SW2 whole entry, looked up): as the sequence (Q96SW2 whole entry) above

BE(2)-C [9] = test: Antiproliferative activity against wild type human BE2C cells assessed as reduction in cell viability measured after 3 days by ATP-dependent luminescence assay; type: functional, cell-based; conditions: 72 h
MOLT-4 [10] = test: Antiproliferative activity against wild type human MOLT-4 cells assessed as reduction in cell viability measured after 3 days by ATP-dependent luminescence assay; type: functional, cell-based; conditions: MOLT-4, 72 h
[11] = target: T1, Protein cereblon/Eukaryotic peptide chain release factor GTP-binding subunit ERF3A; test: Molecular glue activity at CRBN/HiBiT-tagged GSPT1 in human MV4-11 cells assessed as induction of GSPT1 degradation at 3 uM pretreated with MLN4924 at 1 uM for 1 hr followed by compound treatment and measured after 3 hrs by immunoblot analysis; type: cell-based
Target sequence in this assay (P15170 whole entry, looked up): as the sequence (P15170 whole entry) above
Target sequence in this assay (Q96SW2 whole entry, looked up): as the sequence (Q96SW2 whole entry) above

MV4-11 [12] = test: Downregulation of GSPT2 protein abundance in human MV4-11 cells at 3 uM measured after 3 hrs by proteomics analysis; type: functional, cell-based
MV4-11 [13] = test: Antiproliferative activity against CRBN depleted human MV4-11 cells assessed as reduction in cell viability measured after 3 days by ATP-dependent luminescence assay; type: functional, cell-based; conditions: time 3.0 day
[14] = target: T1, Protein cereblon/Eukaryotic peptide chain release factor GTP-binding subunit ERF3A; test: Molecular glue activity at CRBN/HiBiT-tagged GSPT1 in human BE2C cells assessed as induction of GSPT1 degradation at 3 uM pretreated with carfilzomib at 500 nM for 1 hr followed by compound treatment and measured after 3 hrs by immunoblot analysis; type: cell-based
Target sequence in this assay (P15170 whole entry, looked up): as the sequence (P15170 whole entry) above
Target sequence in this assay (Q96SW2 whole entry, looked up): as the sequence (Q96SW2 whole entry) above

[15] = target: T1, Protein cereblon/Eukaryotic peptide chain release factor GTP-binding subunit ERF3A; test: Molecular glue activity at CRBN/HiBiT-tagged GSPT1 in human MOLT-4 cells assessed as induction of GSPT1 degradation at 3 uM pretreated with pomalidomide at 25 uM for 1 hr followed by compound treatment and measured after 3 hrs by immunoblot analysis; type: cell-based
Target sequence in this assay (P15170 whole entry, looked up): as the sequence (P15170 whole entry) above
Target sequence in this assay (Q96SW2 whole entry, looked up): as the sequence (Q96SW2 whole entry) above

[16] = target: T1, Protein cereblon/Eukaryotic peptide chain release factor GTP-binding subunit ERF3A; test: Molecular glue activity at CRBN/HiBiT-tagged GSPT1 in human MV4-11 cells assessed as induction of GSPT1 degradation at 3 uM pretreated with carfilzomib at 500 nM for 1 hr followed by compound treatment and measured after 3 hrs by immunoblot analysis; type: cell-based
Target sequence in this assay (P15170 whole entry, looked up): as the sequence (P15170 whole entry) above
Target sequence in this assay (Q96SW2 whole entry, looked up): as the sequence (Q96SW2 whole entry) above

[17] = target: T1, Protein cereblon/Eukaryotic peptide chain release factor GTP-binding subunit ERF3A; test: Molecular glue activity at CRBN/HiBiT-tagged GSPT1 in human BE2C cells assessed as induction of GSPT1 degradation at 3 uM pretreated with MLN4924 at 1 uM for 1 hr followed by compound treatment and measured after 3 hrs by immunoblot analysis; type: cell-based
MV4-11 [18] = test: Downregulation of GSPT1 protein abundance in human MV4-11 cells at 3 uM measured after 3 hrs by proteomics analysis; type: functional, cell-based
[19] = target: T1, Protein cereblon/Eukaryotic peptide chain release factor GTP-binding subunit ERF3A; test: Molecular glue activity at CRBN/GSPT1 in CRBN depleted human MV4-11 cells assessed as induction of GSPT1 degradation at 3 uM measured after 3 hrs by immunoblot analysis; type: cell-based
[20] = target: T1, Protein cereblon/Eukaryotic peptide chain release factor GTP-binding subunit ERF3A; test: Molecular glue activity at CRBN/HiBiT-tagged GSPT1 in human MOLT-4 cells assessed as induction of GSPT1 degradation at 3 uM pretreated with MLN4924 at 1 uM for 1 hr followed by compound treatment and measured after 3 hrs by immunoblot analysis; type: cell-based
[21] = Selectivity index, ratio of EC50 for antiproliferative activity against human BE2C cells to EC50 for antiproliferative activity against human MV4-11 cells; type: functional
MOLT-4 [22] = test: Antiproliferative activity against human MOLT-4 cells harboring GSPT1 G575N mutant assessed as reduction in cell viability measured after 3 days by ATP-dependent luminescence assay; type: functional, cell-based; conditions: time 3.0 day
BE(2)-C [23] = test: Antiproliferative activity against human BE2C cells harboring GSPT1 G575N mutant assessed as reduction in cell viability measured after 3 days by ATP-dependent luminescence assay; type: functional, cell-based; conditions: time 3.0 day
[24] = target: T1, Protein cereblon/Eukaryotic peptide chain release factor GTP-binding subunit ERF3A; test: Molecular glue activity at CRBN/HiBiT-tagged GSPT1 in human MOLT-4 cells assessed as induction of GSPT1 degradation at 3 uM pretreated with carfilzomib at 500 nM for 1 hr followed by compound treatment and measured after 3 hrs by immunoblot analysis; type: cell-based
[25] = target: T1, Protein cereblon/Eukaryotic peptide chain release factor GTP-binding subunit ERF3A; test: Molecular glue activity at CRBN/GSPT1 in human MOLT-4 cells harboring GSPT1 G575N mutant assessed as induction of GSPT1 degradation at 3 uM measured after 3 hrs by immunoblot analysis; type: cell-based
[26] = target: T1, Protein cereblon/Eukaryotic peptide chain release factor GTP-binding subunit ERF3A; test: Molecular glue activity at CRBN/HiBiT-tagged GSPT1 in human BE2C cells assessed as induction of GSPT1 degradation at 3 uM pretreated with pomalidomide at 25 uM for 1 hr followed by compound treatment and measured after 3 hrs by immunoblot analysis; type: cell-based
[27] = Selectivity index, ratio of EC50 for antiproliferative activity against human BE2C cells to EC50 for antiproliferative activity against human MOLT-4 cells; type: functional
[28] = target: T1, Protein cereblon/Eukaryotic peptide chain release factor GTP-binding subunit ERF3A; test: Molecular glue activity at CRBN/HiBiT-tagged GSPT1 in human MV4-11 cells assessed as induction of GSPT1 degradation at 3 uM pretreated with pomalidomide at 25 uM for 1 hr followed by compound treatment and measured after 3 hrs by immunoblot analysis; type: cell-based
[29] = target: T1, Protein cereblon/Eukaryotic peptide chain release factor GTP-binding subunit ERF3A; test: Molecular glue activity at CRBN/HiBiT-tagged GSPT1 in human MOLT-4 cells assessed as induction of GSPT1 degradation measured after 3 hrs by immunoblot analysis; type: cell-based
Target sequence in this assay (Q96SW2 whole entry): as above
Target sequence in this assay (P15170 whole entry): as the sequence (P15170 whole entry) above

[30] = target: T1, Protein cereblon/Eukaryotic peptide chain release factor GTP-binding subunit ERF3A; test: Molecular glue activity at CRBN/GSPT1 in human MV4-11 cells harboring GSPT1 G575N mutant assessed as induction of GSPT1 degradation at 3 uM measured after 3 hrs by immunoblot analysis; type: cell-based
[31] = target: T1, Protein cereblon/Eukaryotic peptide chain release factor GTP-binding subunit ERF3A; test: Molecular glue activity at CRBN/GSPT1 in human BE2C cells harboring GSPT1 G575N mutant assessed as induction of GSPT1 degradation at 3 uM measured after 3 hrs by immunoblot analysis; type: cell-based
[32] = target: DNA-binding protein Ikaros (Homo sapiens) (UniProt Q13422); test: Induction of IKZF1 degradation in human MV4-11 cells at 3 uM measured after 3 hrs by immunoblot analysis; type: cell-based
Chain of DNA-binding protein Ikaros (Homo sapiens) (Q13422 whole entry): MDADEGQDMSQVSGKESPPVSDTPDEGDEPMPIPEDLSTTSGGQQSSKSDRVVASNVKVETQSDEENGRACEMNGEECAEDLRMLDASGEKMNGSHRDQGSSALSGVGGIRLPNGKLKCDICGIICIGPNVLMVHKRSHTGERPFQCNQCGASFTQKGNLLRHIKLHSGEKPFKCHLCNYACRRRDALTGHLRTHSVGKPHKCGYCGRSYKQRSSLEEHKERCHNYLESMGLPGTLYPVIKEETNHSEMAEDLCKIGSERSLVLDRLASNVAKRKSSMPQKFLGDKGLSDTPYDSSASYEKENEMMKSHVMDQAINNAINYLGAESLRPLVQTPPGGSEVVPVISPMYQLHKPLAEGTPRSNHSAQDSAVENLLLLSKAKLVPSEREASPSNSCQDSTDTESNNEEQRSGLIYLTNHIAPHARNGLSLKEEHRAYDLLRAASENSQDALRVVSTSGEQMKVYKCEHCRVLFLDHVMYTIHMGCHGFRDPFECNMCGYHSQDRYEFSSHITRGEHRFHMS

[33] = target: DNA-binding protein Ikaros (Homo sapiens) (UniProt Q13422); test: Induction of IKZF1 degradation in human MV4-11 cells at 3 uM measured after 3 hrs by proteomics analysis; type: cell-based
[34] = target: DNA-binding protein Ikaros (Homo sapiens) (UniProt Q13422); test: Induction of cHiBiT-tagged IKZF1 degradation in human MV4-11 cells; type: cell-based

Row | Structure (SMILES) | Activity (BE(2)-C [1]) | DC50 [2] [nM] | Activity (MV4-11 [3]) | Activity (MOLT-4 [4]) | Activity [5] | EC50 (MV4-11 [6]) [nM] | DC50 [7] [nM] | Activity [8] | EC50 (BE(2)-C [9]) [nM] | EC50 (MOLT-4 [10]) [nM] | Activity [11] | Activity (MV4-11 [12]) | Activity (MV4-11 [13]) | Activity [14] | Activity [15] | Activity [16] | Activity [17] | Activity (MV4-11 [18]) | Activity [19] | DC50 [29] [nM] | other results
1 | CCC(C)(CCNS(=O)(=O)Nc1ccc2c(c1)CN(C1CCC(=O)NC1=O)C2=O)c1ccccc1OC (stereo unspecified) | inactive | 700 | inactive | inactive | inactive | 410 | 19000 | inactive | 42000 | 420 | inactive | Active | inactive | inactive | inactive | inactive | inactive | Active | inactive | 700 | Activity [20]: inactive; Ratio EC50 [21]: ~100; Activity (MOLT-4 [22]): inactive; Activity (BE(2)-C [23]): inactive; Activity [24]: inactive; Activity [25]: inactive; Activity [26]: inactive; Ratio EC50 [27]: ~100; Activity [28]: inactive; Activity [30]: inactive; Activity [31]: inactive
2 | Cc1cccc(Cl)c1OCCNS(=O)(=O)Nc1ccc2c(c1)CN(C1CCC(=O)NC1=O)C2=O (stereo unspecified) | inactive | 280 | inactive | inactive | inactive | 190 | 8000 | inactive | 12000 | 180 | inactive | Active | inactive | inactive | inactive | inactive | inactive | Active | inactive | 280 | Activity [32]: Active; Activity [20]: inactive; Ratio EC50 [21]: ~100; Activity [33]: inactive; Activity (MOLT-4 [22]): inactive; Activity (BE(2)-C [23]): inactive; Activity [24]: inactive; Activity [25]: inactive; Activity [26]: inactive; Ratio EC50 [27]: ~100; Activity [28]: inactive; Activity [34]: Active; Activity [30]: inactive; Activity [31]: inactive
3 | Cc1ccc(NC(=O)NCc2ccc3c(c2)CN(C2CCC(=O)NC2=O)C3=O)cc1Cl (stereo unspecified) |  | < 1 |  |  |  | < 1 | < 1 |  | < 5 | < 1 |  |  |  |  |  |  |  |  |  | < 1 | 
4 | CC(C)CCOc1ccccc1OCCNS(=O)(=O)Nc1ccc2c(c1)CN(C1CCC(=O)NC1=O)C2=O (stereo unspecified) | inactive | 120 | inactive | inactive | inactive | 40 | 14000 | inactive | 13000 | 60 | inactive | Active | inactive | inactive | inactive | inactive | inactive | Active | inactive | 90 | Activity [20]: inactive; Ratio EC50 [21]: ~100; Activity (MOLT-4 [22]): inactive; Activity (BE(2)-C [23]): inactive; Activity [24]: inactive; Activity [25]: inactive; Activity [26]: inactive; Ratio EC50 [27]: ~100; Activity [28]: inactive; Activity [30]: inactive; Activity [31]: inactive
5 | CCCOc1ccccc1CNS(=O)(=O)Nc1ccc2c(c1)CN(C1CCC(=O)NC1=O)C2=O (stereo unspecified) | inactive | 60 | inactive | inactive | inactive | 80 | 7000 | inactive | 18000 | 110 | inactive | Active | inactive | inactive | inactive | inactive | inactive | Active | inactive | 90 | Activity [32]: inactive; Activity [20]: inactive; Ratio EC50 [21]: ~100; Activity [33]: inactive; Activity (MOLT-4 [22]): inactive; Activity (BE(2)-C [23]): inactive; Activity [24]: inactive; Activity [25]: inactive; Activity [26]: inactive; Ratio EC50 [27]: ~100; Activity [28]: inactive; Activity [34]: inactive; Activity [30]: inactive; Activity [31]: inactive
